Values joined by “and” are separate entries in the source; they are usually repeats but may differ in a detail not shown here. Equal entries are not always repeated.
Experiments:
Type in all cases: cell-based
[1] = system: Halo–p53-Y220C ΔTAD–mCherry 293T cells; assay: annexin–PI staining; settings: Y220C, Concentration 1.5, single replicate
Method: (§1) Cells were plated in six-well plates and treated with varying concentrations of compounds for 1 day. Cells were stained with annexin V–AF488 and PI following the manufacturer’s instructions (Thermo Fisher, V13241) and analyzed by flow cytometry (Beckman CytoFLEX LX), using untreated cells to establish gates.

[2] = system: parental 293T cells; assay: annexin–PI staining; settings: for P3_avg (P3 = early apoptotic) / P5_avg (P5 = late apoptotic): Cell_Line WT, proportion of cells; for avgprop_P3 / avgprop_P4 / avgprop_P5 / avgprop_P2 / P2_viable / P3_AnnexinPos_PIneg / P4_PIpos_AnnexinNeg / P5_PIpos_Annexinpos / prop_P3 / prop_P4 / prop_P5 / prop_P2: WT; for avgprop_P3: average proportion AnnexinPos PIneg; for avgprop_P4: average proportion PIpos AnnexinNeg; for avgprop_P5: average proportion PIpos Annexinpos; for avgprop_P2: average proportion viable; for P2_viable / P3_AnnexinPos_PIneg / P4_PIpos_AnnexinNeg / P5_PIpos_Annexinpos: event count; for P2_viable / P3_AnnexinPos_PIneg / P4_PIpos_AnnexinNeg / P5_PIpos_Annexinpos / prop_P3 / prop_P4 / prop_P5 / prop_P2: single replicate; for prop_P3: proportion AnnexinPos PIneg; for prop_P4: proportion PIpos AnnexinNeg; for prop_P5: proportion PIpos Annexinpos; for prop_P2: proportion viable
Method: as §1

[3] = system: Halo–p53-Y220C ΔTAD–mCherry 293T cells; assay: cell-cycle analysis (DNA content, DAPI flow cytometry); set-up: 4N / 8N / Right_of_Gate1 (replicates) / Right_of_Gate2 (replicates) / 2N: unit not given here; settings: Y220C, 1 day
Method: (§2) Cells were split into a 10-cm dish at low confluency (20%) and grown overnight. Cells were synchronized using overnight treatment with palbociclib (150 nM), washed and split into a six-well plate for treatment with compound for 24 h. Cells were harvested by trypsinization, washed twice with cold 1× PBS, fixed by dropwise addition of ice-cold 70% ethanol while vortexing and incubated overnight (4 °C). Fixed samples were centrifuged at 1,000g for 5 min and 70% ethanol was removed. Cells were washed twice with 1× PBS + 1% BSA before DNA labeling with 1 µg ml^−1 DAPI for 10 min at room temperature, before being analyzed for DNA content by flow cytometry (Beckman CytoFLEX LX).

[4] = system: parental 293T cells; assay: as above; settings: WT, 1 day
Method: as §2

[5] = Conc 0.38 (unit not given; p53-01 in μM, BI2536 in nM)
[6] = Conc 0.75 (unit not given; p53-01 in μM, BI2536 in nM)
[7] = Conc 1.50 (unit not given; p53-01 in μM, BI2536 in nM)
[8] = Conc 10.00 (unit not given; per b27 BI2536 in nM)

SMILES: CC[C@@H]1C(=O)N(C)c2cnc(Nc3ccc(C(=O)NC4CCN(C)CC4)cc3OC)nc2N1C1CCCC1 [BI2536]
- prop_P5 ([1]; proportion PIpos Annexinpos): 0.0346 and 0.03273 and 0.03583
- prop_P2 ([1]; proportion viable): 0.7519 and 0.7808 and 0.7944
- P3_avg (P3 = early apoptotic) ([2]; Concentration 0.75): 0.04079
- P5_avg (P5 = late apoptotic) ([2]; Concentration 0.75): 0.01489
- P3_avg (P3 = early apoptotic) ([2]; Concentration 1.5): 0.1126
- P5_avg (P5 = late apoptotic) ([2]; Concentration 1.5): 0.03242
- avgprop_P3 ([2]; Concentration 0.75): 0.04079
- avgprop_P4 ([2]; Concentration 0.75): 0.03008
- avgprop_P5 ([2]; Concentration 0.75): 0.01489
- avgprop_P2 ([2]; Concentration 0.75): 0.9142
- P2_viable ([2]; Concentration 0.75): 2015 and 2037 and 2022
- P3_AnnexinPos_PIneg ([2]; Concentration 0.75): 93 and 83 and 95
- P4_PIpos_AnnexinNeg ([2]; Concentration 0.75): 62 and 58 and 80
- P5_PIpos_Annexinpos ([2]; Concentration 0.75): 28 and 35 and 36
- prop_P3 ([2]; Concentration 0.75): 0.04231 and 0.03751 and 0.04254
- prop_P4 ([2]; Concentration 0.75): 0.02821 and 0.02621 and 0.03583
- prop_P5 ([2]; Concentration 0.75): 0.01274 and 0.01582 and 0.01612
- prop_P2 ([2]; Concentration 0.75): 0.9167 and 0.9205 and 0.9055
- avgprop_P3 ([2]; Concentration 1.5): 0.1126
- avgprop_P4 ([2]; Concentration 1.5): 0.02945
- avgprop_P5 ([2]; Concentration 1.5): 0.03242
- avgprop_P2 ([2]; Concentration 1.5): 0.8255
- P2_viable ([2]; Concentration 1.5): 1572 and 1534 and 1608
- P3_AnnexinPos_PIneg ([2]; Concentration 1.5): 206 and 222 and 215
- P4_PIpos_AnnexinNeg ([2]; Concentration 1.5): 60 and 57 and 51
- P5_PIpos_Annexinpos ([2]; Concentration 1.5): 54 and 71 and 60
- prop_P3 ([2]; Concentration 1.5): 0.1089 and 0.1178 and 0.1112
- prop_P4 ([2]; Concentration 1.5): 0.03171 and 0.03025 and 0.02637
- prop_P5 ([2]; Concentration 1.5): 0.02854 and 0.03769 and 0.03102
- prop_P2 ([2]; Concentration 1.5): 0.8309 and 0.8142 and 0.8314
- 2N [3, 5]: 59.64
- 4N [3, 5]: 39.45
- 8N [3, 5]: 0.91
- Right_of_Gate1 (replicates) [3, 5]: 40.36 and 39.92 and 40.00
- Right_of_Gate2 (replicates) [3, 5]: 0.91 and 0.89 and 1.00
- 2N [3, 6]: 59.25
- 4N [3, 6]: 40.16
- 8N [3, 6]: 0.59
- Right_of_Gate1 (replicates) [3, 6]: 40.75 and 40.54 and 40.62
- Right_of_Gate2 (replicates) [3, 6]: 0.59 and 0.51 and 0.57
- 2N [3, 7]: 58.82
- 4N [3, 7]: 40.66
- 8N [3, 7]: 0.52
- Right_of_Gate1 (replicates) [3, 7]: 41.18 and 41.58 and 39.89
- Right_of_Gate2 (replicates) [3, 7]: 0.52 (2×) and 0.50
- 2N [3, 8]: 2.81
- 4N [3, 8]: 3.65
- 8N [3, 8]: 93.54
- Right_of_Gate1 (replicates) [3, 8]: 97.19 and 96.75 and 95.65
- Right_of_Gate2 (replicates) [3, 8]: 93.54 and 93.93 and 86.65
- 2N [4, 5]: 60.20
- 4N [4, 5]: 37.88
- Right_of_Gate1 (replicates) [4, 5]: 39.80 and 40.72 and 40.28
- Right_of_Gate2 (replicates) [4, 5]: 1.92 and 1.75 and 1.63
- 2N [4, 6]: 60.97
- 4N [4, 6]: 37.16
- Right_of_Gate1 (replicates) [4, 6]: 39.03 and 39.73 and 39.74
- Right_of_Gate2 (replicates) [4, 6]: 1.87 and 1.62 and 1.66
- 2N [4, 7]: 59.07
- 4N [4, 7]: 38.46
- Right_of_Gate1 (replicates) [4, 7]: 40.93 and 41.63 and 42.56
- Right_of_Gate2 (replicates) [4, 7]: 2.47 and 2.39 and 2.53
- 2N [4, 8]: 2.57
- 4N [4, 8]: 4.74
- Right_of_Gate1 (replicates) [4, 8]: 97.43 and 97.32 and 97.36
- Right_of_Gate2 (replicates) [4, 8]: 92.69 and 91.65 and 92.21
